The values below come from patent US9409915B2, “Substituted aza-bicyclic imidazole derivatives useful as TRPM8 receptor modulators” (Janssen Pharmaceutica NV, priority 2010, dated 2016).

The inhibition is the change of the read-out against control, counted positive when it falls. Lower therefore signals a response near the control. For orientation: IC50 means the concentration needed to halve the response being measured.

The test has as its target canine TRPM8 (Canis lupus familiaris, UniProt Q1A7N1). The experiment in a line: In vitro canine TRPM8 functional assay (Ca2+-sensitive fluorescent dye, icilin activation). In kind it is cell-based. The note with it: HEK293 cells stably expressing canine TRPM8, icilin-induced Ca2+ response; for IC50: eight-point concentration-response. As to the method: The functional activity of representative compounds of the formula (I) of the present invention was quantified by measuring changes in intracellular calcium concentration using a Ca^2+-sensitive fluorescent dye. The changes in fluorescent signal were monitored by a fluorescence plate reader, either a FLIPR™ (Molecular Devices) or FDSS (Hamamatsu).
HEK293 cells stably expressing canine TRPM8 were routinely grown as monolayers in Dulbecco's minimum essential medium supplemented with 10% FBS, 2 mM L-glutamine, 100 units/mL penicillin, 100 ug/mL streptomycin and 400 μg/mL G418. Cells were maintained in 5% CO2 at 37° C. At 24 hr prior to assay, cells were seeded in black wall, clear-base poly-D-lysine coated 384-well plates (BD Biosciences, NJ, USA) at a density of 5,000 cells per well in culture medium and grown overnight in 5% CO2 at 37° C. On assay day, growth media was removed, and cells were loaded with Calcium 3 Dye (Molecular Devices) for 35 min at 37° C., under 5% CO2 and then incubated for 25 min at room temperature and atmosphere. Subsequently, cells were tested for agonist-induced increases in intracellular Ca^2+ levels using FLIPR™ or FDSS. Cells were treated with compounds of the formula (I) at varying concentrations and intracellular Ca^2+ was measured for 5 min prior to the addition of icilin to each well to achieve a final concentration that produces an approximately 80% maximal response.
Maximal fluorescence intensity (FI) achieved upon addition of icilin was exported from the FLIPR™ or FDSS software and further analyzed using GraphPad Prism 3.02 (Graph Pad Software Inc., CA, U.S.A.). Basal FI was subtracted prior to normalizing data to percent of maximal response. Curves were generated using the average of quadruplicate wells for each data point using nonlinear regression of either sigmoidal dose response or sigmoidal dose response (variable slope). Finally, the EC50 and IC50 values were calculated with the best-fit curve determined by GraphPad Prism

Counter-ions that a name gives are not always drawn.

canine TRPM8, sequence (Q1A7N1 1-1104): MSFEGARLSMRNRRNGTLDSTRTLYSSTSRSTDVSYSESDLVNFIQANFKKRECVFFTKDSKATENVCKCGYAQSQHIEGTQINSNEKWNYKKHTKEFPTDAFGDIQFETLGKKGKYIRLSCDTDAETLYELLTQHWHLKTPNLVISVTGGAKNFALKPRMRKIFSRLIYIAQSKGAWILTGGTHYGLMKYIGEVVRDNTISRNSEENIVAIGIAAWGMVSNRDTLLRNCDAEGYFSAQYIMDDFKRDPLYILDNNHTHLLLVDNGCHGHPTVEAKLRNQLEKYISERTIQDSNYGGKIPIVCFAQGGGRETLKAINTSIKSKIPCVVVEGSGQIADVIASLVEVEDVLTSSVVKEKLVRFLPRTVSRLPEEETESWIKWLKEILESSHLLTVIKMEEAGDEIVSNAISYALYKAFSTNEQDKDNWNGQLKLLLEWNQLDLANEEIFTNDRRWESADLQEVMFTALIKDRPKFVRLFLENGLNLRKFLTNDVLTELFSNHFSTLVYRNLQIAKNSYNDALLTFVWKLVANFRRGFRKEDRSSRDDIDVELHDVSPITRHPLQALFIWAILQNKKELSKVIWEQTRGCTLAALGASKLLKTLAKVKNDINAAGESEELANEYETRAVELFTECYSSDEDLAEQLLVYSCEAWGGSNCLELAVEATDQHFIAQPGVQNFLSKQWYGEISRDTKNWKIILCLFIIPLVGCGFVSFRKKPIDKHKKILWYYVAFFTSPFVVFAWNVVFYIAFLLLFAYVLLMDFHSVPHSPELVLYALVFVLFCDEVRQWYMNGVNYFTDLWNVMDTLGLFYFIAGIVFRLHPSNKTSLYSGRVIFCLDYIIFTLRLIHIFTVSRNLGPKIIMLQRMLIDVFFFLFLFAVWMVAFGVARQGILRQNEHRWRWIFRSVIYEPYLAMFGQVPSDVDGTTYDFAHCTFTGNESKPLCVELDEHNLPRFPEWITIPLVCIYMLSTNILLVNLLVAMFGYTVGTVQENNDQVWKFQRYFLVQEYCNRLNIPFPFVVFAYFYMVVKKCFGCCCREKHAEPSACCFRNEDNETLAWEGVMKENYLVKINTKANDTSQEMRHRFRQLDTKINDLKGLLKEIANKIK

With `COc1nc(-c2ccccc2OC(F)(F)F)cc2nc(-c3c(Cl)c(C(C)(C)C)nn3C)[nH]c12` [Compound 2, 2-(5-tert-Butyl-4-chloro-2-methyl-2H-pyrazol-3-yl)-4-methoxy-6-(2-trifluoromethoxy-phenyl)-3H-imidazo[4,5-c]pyridine sodium salt], the midpoint of inhibition, the IC50, lay at 0.013 µM. For the same compound, the inhibition at 0.2 µM (0.2 μM compound) turned out to be 100%.
The corresponding values for `COCCOc1nc(-c2ccccc2C(F)(F)F)cc2nc(-c3c(C#N)c(C(C)(C)C)nn3C)[nH]c12` [Compound 21, 3-tert-Butyl-5-[4-(2-methoxy-ethoxy)-6-(2-trifluoromethyl-phenyl)-3H-imidazo[4,5-c]pyridine-2-yl]-1-methyl-1H-pyrazole-4-carbonitrile benzenesulfonic acid salt] are 0.00069 µM and 99%.
`COc1nc(-c2ccccc2Cl)cc2nc(-c3csc(C(C)C)c3)[nH]c12` [Compound 98, 6-(2-Chloro-phenyl)-2-(5-isopropyl-thiophen-3-yl)-4-methoxy-3H-imidazo[4,5-c]pyridine] displayed an IC50 of 0.014 µM. Moreover, the inhibition at 0.2 µM (0.2 μM compound) worked out at 100%.
In the case of `CC(C)Oc1nc(-c2ccccc2C(F)(F)F)cc2nc(-c3c(Cl)c(C(C)(C)C)nn3C)[nH]c12` [Compound 16, 2-(5-tert-Butyl-4-chloro-2-methyl-2H-pyrazol-3-yl)-4-isopropoxy-6-(2-trifluoromethyl-phenyl)-3H-imidazo[4,5-c]pyridine benzenesulfonic acid salt], the IC50 is 0.00059 µM. The inhibition at 0.2 µM (0.2 μM compound) came out at 99%.
The compound `Cn1nc(C(C)(C)C)cc1-c1nc2cc(-c3ccccc3C(F)(F)F)nc(Cl)c2[nH]1` [Compound 74, 2-(5-tert-Butyl-2-methyl-2H-pyrazol-3-yl)-4-chloro-6-(2-trifluoromethyl-phenyl)-3H-imidazo[4,5-c]pyridine hydrochloride] had an IC50 of 0.096 µM. Besides, testing at 0.2 µM (0.2 μM compound) gave an inhibition of 93%.
In turn, `Cn1nc(C(C)(C)C)c(Cl)c1-c1nc2nc(-c3ccccc3C(F)(F)F)cnc2[nH]1` [Compound 95, 2-(5-tert-butyl-4-chloro-2-methyl-2H-pyrazol-3-yl)-6-(2-trifluoromethyl-phenyl)-1H-imidazo[4,5-b]pyrazine] showed a 50% inhibitory concentration (IC50) of 0.027 µM. Moreover, the inhibition at 0.2 µM (0.2 μM compound) was 100%.
`COc1cc(-c2ccccc2C(F)(F)F)nc2nc(-c3onc(C(C)(C)C)c3C#N)[nH]c12` [Compound 70, 3-tert-Butyl-5-[7-methoxy-5-(2-trifluoromethyl-phenyl)-1H-imidazo[4,5-b]pyridin-2-yl]-isoxazole-4-carbonitrile methanesulfonic acid salt] displayed an inhibition at 0.2 µM (0.2 μM compound) of 36%.
As for `Cn1nc(C(C)(C)C)c(Cl)c1-c1nc2nc(-c3ccccc3C(F)(F)F)cc(Cl)c2[nH]1` [compound 5, hydrochloride], where the note is “0.2 μM compound”, the inhibition at 0.2 µM came out at 99%.
`CC(C)(C)c1cc(-c2nc3nc(-c4ccccc4C(F)(F)F)cc(Cl)c3[nH]2)on1` [Compound 7, 2-(3-tert-Butyl-isoxazol-5-yl)-7-chloro-5-(2-trifluoromethyl-phenyl)-1H-imidazo[4,5-b]pyridine] came in with an IC50 of 0.038 µM. For the same compound, the inhibition at 0.2 µM (0.2 μM compound) was 99%.
In the case of `CC(C)Oc1nc(-c2ccccc2F)cc2nc(-c3c(Cl)c(C(C)(C)C)nn3C)[nH]c12` [Compound 92, 2-(5-tert-Butyl-4-chloro-2-methyl-2H-pyrazol-3-yl)-6-(2-fluorophenyl)-4-isopropoxy-3H-imidazo[4,5-c]pyridine sodium salt], the IC50 is 0.0028 µM. For the setting “0.2 μM compound”, this compound came in with an inhibition at 0.2 µM of 99%.
Regarding `Cc1nc(-c2ccccc2C(F)(F)F)nc2nc(-c3cc(C(C)(C)C)nn3C)[nH]c12` [Compound 35, 8-(5-tert-Butyl-2-methyl-2H-pyrazol-3-yl)-6-methyl-2-(2-trifluoromethyl-phenyl)-7H-purine trifluoroacetic acid salt], under “0.2 μM compound”, the inhibition at 0.2 µM was 67%.
Where the note is “0.2 μM compound”, `Cn1nc(C(C)(C)C)c(C#N)c1-c1nc2cc(-c3ccccc3C(F)(F)F)nc(OCC(=O)O)c2[nH]1` [Compound 86, [2-(5-tert-Butyl-4-cyano-2-methyl-2H-pyrazol-3-yl)-6-(2-trifluoromethyl-phenyl)-3H-imidazo[4,5-c]pyridin-4-yloxy]-acetic acid] registered an inhibition at 0.2 µM of 49%.
The compound `COc1nc(-c2ccccc2Cl)cc2nc(-c3cnn(C(C)(C)C)c3)[nH]c12` [Compound 102, 2-(1-tert-Butyl-1H-pyrazol-4-yl)-6-(2-chloro-phenyl)-4-methoxy-3H-imidazo[4,5-c]pyridine sodium salt] had an IC50 of 0.12 µM. The inhibition at 0.2 µM (0.2 μM compound) worked out at 70%.
The corresponding values for `CC(C)(C)c1cc(-c2nc3cc(-c4ccccc4C(F)(F)F)nc(Cl)c3[nH]2)on1` [Compound 73, 2-(3-tert-Butyl-isoxazol-5-yl)-4-chloro-6-(2-trifluoromethyl-phenyl)-3H-imidazo[4,5-c]pyridine hydrochloride] are 0.028 µM and 100%.
For the compound `Cn1nc(C(C)(C)C)cc1-c1nc2nc(-c3ccccc3C(F)(F)F)cc(Cl)c2[nH]1` [Compound 6, 2-(5-tert-butyl-2-methyl-2H-pyrazol-3-yl)-7-chloro-5-(2-trifluoromethyl-phenyl)-1H-imidazo[4,5-b]pyridine sodium salt], half-maximal inhibition (IC50) required 0.069 µM. In addition, under “0.2 μM compound”, the inhibition at 0.2 µM amounted to 65%.
With `COc1cc(-c2ccccc2C(F)(F)F)nc2nc(-c3cc(C(C)(C)C)nn3C)[nH]c12` [Compound 81, 2-(5-tert-Butyl-2-methyl-2H-pyrazol-3-yl)-7-methoxy-5-(2-trifluoromethyl-phenyl)-1H-imidazo[4,5-b]pyridine hydrochloride], the IC50 was found to be 0.12 µM. Under “0.2 μM compound”, this compound registered an inhibition at 0.2 µM of 67%.
The corresponding values for `Cn1nc(C(C)(C)C)c(C#N)c1-c1nc2cc(-c3ccccc3Cl)nc(OCCO)c2[nH]1` [Compound 83, 3-tert-Butyl-5-[6-(2-chloro-phenyl)-4-(2-hydroxy-ethoxy)-3H-imidazo[4,5-c]pyridin-2-yl]-1-methyl-1H-pyrazole-4-carbonitrile] are 0.0018 µM and 99%.
For the compound `COc1nc(-c2ccccc2C(F)(F)F)cc2nc(-c3cc(C(C)(C)C)nn3C)[nH]c12` [Compound 80, 2-(5-tert-Butyl-2-methyl-2H-pyrazol-3-yl)-4-methoxy-6-(2-trifluoromethyl-phenyl)-3H-imidazo[4,5-c]pyridine methanesulfonic acid salt], 0.042 µM corresponded to half-maximal inhibition (IC50). 0.2 µM produced 100% inhibition (0.2 μM compound).
Under “0.2 μM compound”, `Cn1nc(C(C)(C)C)c(Cl)c1-c1nc2cc(-c3ccccc3C(F)(F)F)nc(C#N)c2[nH]1` [compound 60, 2-(5-tert-butyl-4-chloro-2-methyl-2H-pyrazol-3-yl)-6-(2-trifluoromethyl-phenyl)-3H-imidazo[4,5-c]pyridine-4-carbonitrile benzenesulfonic acid salt] yielded an inhibition at 0.2 µM of 99%.
The compound `CC(C)(C)c1cc(-c2nc3nc(-c4ccccc4F)ccc3[nH]2)on1` [Compound 30, 2-(3-tert-Butyl-isoxazol-5-yl)-5-(2-fluoro-phenyl)-1H-imidazo[4,5-b]pyridine] gave an IC50 of 0.087 µM. Besides, the inhibition at 0.2 µM (0.2 μM compound) was found to be 87%.
In turn, `COCCOc1cc(-c2ccccc2C(F)(F)F)nc2nc(-c3c(Cl)c(C(C)(C)C)nn3C)[nH]c12` [Compound 76, 2-(5-tert-Butyl-4-chloro-2-methyl-2H-pyrazol-3-yl)-7-(2-methoxy-ethoxy)-5-(2-trifluoromethyl-phenyl)-1H-imidazo[4,5-b]pyridine methanesulfonic acid salt] registered an IC50 of 0.0058 µM. Under “HEK293, 0.2 μM compound”, testing at 0.2 µM gave an inhibition of 98%.
As for `CN1CCN(c2nc(-c3ccccc3C(F)(F)F)cc3nc(-c4c(Cl)c(C(C)(C)C)nn4C)[nH]c23)CC1` [Compound 28, 2-(5-tert-Butyl-4-chloro-2-methyl-2H-pyrazol-3-yl)-4-(4-methyl-piperazin-1-yl)-6-(2-trifluoromethyl-phenyl)-3H-imidazo[4,5-c]pyridine methanesulfonic acid salt], it took 0.011 µM to reach half-maximal inhibition (IC50). Moreover, the inhibition at 0.2 µM (HEK293, 0.2 μM compound) turned out to be 99%.
Consider `CC(C)(C)c1cc(-c2nc3nc(-c4ccccc4C(F)(F)F)ccc3[nH]2)on1` [Compound 31, 2-(3-tert-Butyl-isoxazol-5-yl)-5-(2-trifluoromethyl-phenyl)-1H-imidazo[4,5-b]pyridine], for which the 50% inhibitory concentration (IC50) stood at 0.018 µM. This compound also gave an inhibition at 0.2 µM (0.2 μM compound) of 100%.
`Cn1nc(C(C)(C)C)c(Cl)c1-c1nc2cc(-c3ccccc3OC(F)(F)F)nc(OCC(F)(F)F)c2[nH]1` [Compound 90, 2-(5-tert-Butyl-4-chloro-2-methyl-2H-pyrazol-3-yl)-4-(2,2,2-trifluoro-ethoxy)-6-(2-trifluoromethoxyphenyl)-3H-imidazo[4,5-c]pyridine sodium salt] had an IC50 of 0.00073 µM. The same compound had an inhibition at 0.2 µM (0.2 μM compound) of 99%.
